{
  "source": "patent US20120034613A1",
  "about": "“Apparatus and Method for Testing Relationships Between Gene Expression and Physical Appearance of Skin” (NSE Products, Inc., priority 2010, published 2012)",
  "key": {"[1]": {"system": "facial skin in the crow's feet area", "experiment": "Ultrasound measurement of density of the facial skin, 12 week clinical study", "assay_type": "in vivo, human", "details": "for Ultrasound Density Mean: Baseline mean 18.55", "from_the_text": "(§1) Ultrasound measurements were taken on the left side of each subject's face to measure density of the facial skin in the crow's feet area. Measurements were taken with the probe oriented perpendicular to the body axis while the subjects were resting supine on a padded patient table. All clinical and corneometer measurements and evaluations were taken at baseline, week 1 (visit 2), week 4 (visit 3), week 8 (visit 4) and week 12 (visit 5). Ultrasound and cutometer measurements and evaluations were taken at baseline, week 4 (visit 3), week 8 (visit 4) and week 12 (visit 5). Completed patient's diaries were reviewed for compliance at each visit. Mean clinical grading and instrumentation scores at each visit were statistically compared to baseline scores using paired t-test. Changes from baseline were considered significant at the p≦0.05 level. Mean percent change from baseline and incidence of positive responders were calculated for all attributes. Comparisons, based on the average from baseline, were made between the test materials using analysis of variance (ANOVA)."}, "stratum corneum": {"system": "stratum corneum", "experiment": "Corneometry, moisture content of the stratum corneum, 12 week clinical study", "assay_type": "in vivo, human", "details": "Left Ocular Bone; for Corneometer Mean: Baseline mean 56.49", "from_the_text": "as §1, with “Corneometry measurements” for “Ultrasound measurements”, “on” for “on the left side of”, “subject's left ocular bone (in line with pupil)” for “subject's face”, “measure the moisture content” for “measure density”, “the stratum corneum.” for “the facial skin in the crow's feet area. Measurements were taken with the probe oriented perpendicular to the body axis while the subjects were resting supine on a padded patient table.”"}, "[2]": {"system": "human equivalent skin tissue", "experiment": "RT-rt-PCR (TaqMan Low Density Arrays) gene expression confirmation, agent-exposed vs unexposed skin model", "assay_type": "cell-based", "details": "Salicin 0.5% vs. Untreated Control, HPRT as Endogenous Control Gene", "method": "Preferably this is done with the same skin model as used with the microarray technology for measuring global gene expression. The qualities of the agent (concentration, solvent, etc.) should normally be the same.\nIn some embodiments, the agent tested is salicin at a concentration of 0.5% salicin, available from Symrise Corporation (Teterborro, N.J.). The salicin is dissolved in water. Affymetrix microarray testing provides results for thousands of genes, whereas RT-rt-PCR testing provides results for a smaller gene group. For RT-rt-PCR testing, about 90 genes are tested at a time for this particular experimental design (other designs may test as many as 390 at a time on the equipment identified below). The experimenter may choose this number based on cost.\nTo implement this step, RT-rt-PCR is conducted for specific genes known to be involved in skin aging. In one embodiment Custom TaqMan® Low Density Arrays (TLDA's) were configured using Applied Biosystems validated gene expression assays. The validated gene expression assays contain a TaqMan® fluorescent probe and primers for each target gene. Genes for the TLDA cards are selected based on either, published literature describing the genes functional role in skin cell biology and aging and/or the previous Affymetrix testing results. (See Tables 1-4). Five endogenous control genes may be included on each card. Thus, when a particular gene assembly is tested with RT-rt-PCR, the data resulting may cover more than just the set of genes as in Table 3.\n(High-Capacity cDNA Reverse Transcription Kits for 200 and 1000 Reactions Protocol (October, 2006)). cDNA was mixed with TaqMan® Universal Master Mix without UNG and loaded into the wells of the TLDA cards. The cards are run using an Applied Biosystems 7900HT instrument according to the manufacturer's cycling parameters.\nAs with the microassay, the analysis is done with a skin model exposed to the agent and a reference that is not exposed to the agent. The skin model not exposed to the agent may be used for calibration. The skin model may be human equivalent skin tissue. The target genes get normalized to a stable endogenous control (genes that are invariants in all cell types such as […]). This normalization is to account for variations that may occur during sample loading. The unexposed information gathered is used for comparison against the tested sample.\nThe formula for ΔCT (delta cycle threshold) is CT (target) minus CT (endogenous control gene). (ΔCT=CT (target)−CT (endogenous control gene)). The test system, data processing system 710 stores the data then uses process application modules 720 to take the CT values for both the exposed and unexposed and get a ΔΔCT value, which is reported for that specific gene in a log ratio scale. […] In one embodiment, data analysis is carried out according to the RQ analysis method using RQ Manager and StatMiner (v3.1) software programs.\nAt least part of the comparing of the data is performed by a computer system, such as the data processing system 710 (see FIG. 7) for performing data access and storage and various computations specified by software (process application modules 720) corresponding to the functions occurring at various described steps of this method. Additional process application modules 722 perform a parametric t-test with a Benjamini and Hochberg false discovery rate correction is performed to identify genes with a statistically significant p value equal to or less than 0.05. The up or down regulation of the gene is also identifiable from the RT-rt-PCR analysis. Results of the change in threshold cycle (ΔCT) values between the exposed and unexposed human skin tissues are calculated by a software program. The selected genes will have a cycle threshold of biological relevance. For these experiments, the selected genes have a cycle threshold of less than about <35, which is a value of biological relevance. […]"}},
  "data": [
    {"smiles": "OCc1ccccc1O[C@@H]1O[C@H](CO)[C@@H](O)[C@H](O)[C@H]1O", "note": "[Salicin, 2-(Hydroxymethyl)phenyl β-D-glucospyranoside]", "values": [
      {"measurement": "Ultrasound Density Mean", "setting": "[1]; Week 4", "result": 21.38},
      {"measurement": "Ultrasound Density % Change", "setting": "[1]; Week 4 vs Baseline", "result": "(15.2%)"},
      {"measurement": "Ultrasound Density Mean", "setting": "[1]; Week 8", "result": 23.52},
      {"measurement": "Ultrasound Density % Change", "setting": "[1]; Week 8 vs Baseline", "result": "(26.7%)"},
      {"measurement": "Ultrasound Density Mean", "setting": "[1]; Week 12", "result": 25.21},
      {"measurement": "Ultrasound Density % Change", "setting": "[1]; Week 12 vs Baseline", "result": "(35.8%)"},
      {"measurement": "Corneometer Mean", "setting": "stratum corneum; Week 1", "result": 60.54},
      {"measurement": "Corneometer % Change", "setting": "stratum corneum; Week 1 vs Baseline", "result": "(7.3%)"},
      {"measurement": "Corneometer Mean", "setting": "stratum corneum; Week 4", "result": 62.49},
      {"measurement": "Corneometer % Change", "setting": "stratum corneum; Week 4 vs Baseline", "result": "(10.6%)"},
      {"measurement": "Corneometer Mean", "setting": "stratum corneum; Week 8", "result": 63.91},
      {"measurement": "Corneometer % Change", "setting": "stratum corneum; Week 8 vs Baseline", "result": "(13.1%)"},
      {"measurement": "Corneometer Mean", "setting": "stratum corneum; Week 12", "result": 52.23},
      {"measurement": "Corneometer % Change", "setting": "stratum corneum; Week 12 vs Baseline", "result": "(−7.5%)"},
      {"measurement": "CAT gene expression Direction", "setting": "[2]", "result": "down"},
      {"measurement": "CAT gene expression Log10RG", "setting": "[2]", "result": "−0.4768"},
      {"measurement": "COL4A1 gene expression Direction", "setting": "[2]", "result": "up"},
      {"measurement": "COL4A1 gene expression Log10RG", "setting": "[2]", "result": 0.2086},
      {"measurement": "DSC3 gene expression Direction", "setting": "[2]", "result": "down"},
      {"measurement": "DSC3 gene expression Log10RG", "setting": "[2]", "result": "−0.2938"},
      {"measurement": "DSP gene expression Direction", "setting": "[2]", "result": "down"},
      {"measurement": "DSP gene expression Log10RG", "setting": "[2]", "result": "−0.2223"},
      {"measurement": "FN1 gene expression Direction", "setting": "[2]", "result": "up"},
      {"measurement": "FN1 gene expression Log10RG", "setting": "[2]", "result": 0.2411},
      {"measurement": "FOXO1 gene expression Direction", "setting": "[2]", "result": "up"},
      {"measurement": "FOXO1 gene expression Log10RG", "setting": "[2]", "result": 0.2383},
      {"measurement": "IL6 gene expression Direction", "setting": "[2]", "result": "up"},
      {"measurement": "IL6 gene expression Log10RG", "setting": "[2]", "result": 0.9322},
      {"measurement": "ITGB1 gene expression Direction", "setting": "[2]", "result": "up"},
      {"measurement": "ITGB1 gene expression Log10RG", "setting": "[2]", "result": "9.36E−02"},
      {"measurement": "ITGB4 gene expression Direction", "setting": "[2]", "result": "down"},
      {"measurement": "ITGB4 gene expression Log10RG", "setting": "[2]", "result": "−0.8283"},
      {"measurement": "KRT1 gene expression Direction", "setting": "[2]", "result": "down"},
      {"measurement": "KRT1 gene expression Log10RG", "setting": "[2]", "result": "−1.112"},
      {"measurement": "KRT5 gene expression Direction", "setting": "[2]", "result": "down"},
      {"measurement": "KRT5 gene expression Log10RG", "setting": "[2]", "result": "−0.445"},
      {"measurement": "LOR gene expression Direction", "setting": "[2]", "result": "down"},
      {"measurement": "LOR gene expression Log10RG", "setting": "[2]", "result": "−1.921"},
      {"measurement": "PRKCA gene expression Direction", "setting": "[2]", "result": "up"},
      {"measurement": "PRKCA gene expression Log10RG", "setting": "[2]", "result": 0.2749},
      {"measurement": "S100A8 gene expression Direction", "setting": "[2]", "result": "down"},
      {"measurement": "S100A8 gene expression Log10RG", "setting": "[2]", "result": "−0.6307"},
      {"measurement": "S100A9 gene expression Direction", "setting": "[2]", "result": "down"},
      {"measurement": "S100A9 gene expression Log10RG", "setting": "[2]", "result": "−0.6513"},
      {"measurement": "SDC1 gene expression Direction", "setting": "[2]", "result": "down"},
      {"measurement": "SDC1 gene expression Log10RG", "setting": "[2]", "result": "−0.3961"},
      {"measurement": "SMAD7 gene expression Direction", "setting": "[2]", "result": "up"},
      {"measurement": "SMAD7 gene expression Log10RG", "setting": "[2]", "result": 0.2325},
      {"measurement": "SOD2 gene expression Direction", "setting": "[2]", "result": "up"},
      {"measurement": "SOD2 gene expression Log10RG", "setting": "[2]", "result": 0.3025},
      {"measurement": "TNC gene expression Direction", "setting": "[2]", "result": "up"},
      {"measurement": "TNC gene expression Log10RG", "setting": "[2]", "result": 0.1429},
      {"measurement": "ITGB1 gene expression Log10RG", "setting": "[2]; listed as salicin", "result": 0.09356}
    ]}
  ]
}
